The results in this text go back to PubChem BioAssay (NCI).

Among the test systems are MALME-3M melanoma; HT29 colon; NCI-H522 lung; OVCAR-3 ovarian; K-562 leukemia; OVCAR-8 ovarian; HS 578T breast; EKVX NSCLC; PC-3 prostate; A498 renal; SK-OV-3 ovarian; NCI/ADR-RES ovarian.
What all share (experiment): inhibition of tumour cell growth, NCI panel, 48 h

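Dose response: 5 concentrations. Exposure: 48 h. Format: 96-well plates. Endpoint: linear interpolation; highest concentration if not reached. Definition used: TGI = concentration required for complete inhibition of growth.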

For the molecule `CN(C(=O)c1ccc(Cl)cc1)C(=S)N1CCN(c2ccccc2)CC1`, the TGI in the assay with MALME-3M melanoma, in the assay with HT29 colon, in the assay on NCI-H522 lung, in the assay with OVCAR-3 ovarian, with K-562 leukemia and in the assay on OVCAR-8 ovarian was over 100 µM throughout. In the assay with HS 578T breast, this molecule had a TGI of 95.6 µM.
As to `Cc1c(C#N)c(N)n(C2OC(CO)C(O)C(O)C2O)c(=S)c1C#N` (stereo unspecified), the TGI with MALME-3M melanoma, in the assay with EKVX NSCLC, in the assay on HT29 colon, in the assay with PC-3 prostate, in the assay with A498 renal and in the assay with NCI-H522 lung was over 100 µM in each case. Also, the TGI in the assay on SK-OV-3 ovarian, in the assay on OVCAR-3 ovarian, in the assay on K-562 leukemia, in the assay on OVCAR-8 ovarian and with HS 578T breast was over 100 µM in each case.
For the molecule `CCCCC(N)CSSCC(N)CCCC` (stereo unspecified), the TGI with MALME-3M melanoma was 32.6 µM; in the assay with EKVX NSCLC, 61.8 µM; in the assay on HT29 colon, 50.8 µM; with A498 renal, 57.4 µM; in the assay on NCI-H522 lung, 29.7 µM; in the assay with SK-OV-3 ovarian, over 100 µM. The TGI with OVCAR-3 ovarian was 47.2 µM; in the assay on K-562 leukemia, 57 µM; in the assay on OVCAR-8 ovarian it was over 100 µM.
As for `O=C(c1cccc2cc(O)ccc12)c1cn(CCN2CCOCC2)c2ccccc12`, the TGI in the assay on MALME-3M melanoma was 56.3 µM; in the assay with EKVX NSCLC it was 64.8 µM; with HT29 colon, 37.1 µM; in the assay with PC-3 prostate, 35.5 µM; with NCI-H522 lung, 61.4 µM; with K-562 leukemia it was over 100 µM. In the assay on OVCAR-8 ovarian, this molecule came in with a TGI of over 100 µM.
On to `Cn1cc2ccccc2c1-c1nc(F)nc(Nc2ccc(N)cc2)n1`, for which the TGI in the assay with MALME-3M melanoma is 39.2 µM; in the assay with EKVX NSCLC, 60.4 µM; in the assay with HT29 colon, 57.3 µM; in the assay with A498 renal, 21.6 µM; in the assay on NCI-H522 lung, 28.9 µM; with SK-OV-3 ovarian, 33.8 µM. The figures for the TGI in the assay with OVCAR-3 ovarian, in the assay with K-562 leukemia and with OVCAR-8 ovarian were 48.3 µM, over 100 µM and 46.7 µM, respectively.
With `N#Cc1c2ccc([N+](=O)[O-])cc2c(=O)n2c1sc1ccccc12`, the TGI is over 100 µM with HT29 colon; 43.9 µM with PC-3 prostate; 56.4 µM in the assay on A498 renal; 29.5 µM in the assay on K-562 leukemia; over 100 µM in the assay with OVCAR-8 ovarian; over 100 µM in the assay on HS 578T breast. Further, in the assay on NCI/ADR-RES ovarian, the TGI was found to be 66.3 µM.
`Cc1ccc(N2C3=C(CC4=C2CC(C)(C)CC4=O)C(=O)CC(C)(C)C3)cc1`: the TGI with MALME-3M melanoma, in the assay on EKVX NSCLC, in the assay with HT29 colon, with PC-3 prostate, with A498 renal and in the assay with SK-OV-3 ovarian was over 100 µM each time. The TGI in the assay with OVCAR-3 ovarian, in the assay with K-562 leukemia, with OVCAR-8 ovarian, in the assay on HS 578T breast and in the assay on NCI/ADR-RES ovarian was over 100 µM in each case.
For the molecule `CNC(=O)OCC1=C(COC(=O)NC)C(C)N(c2ccccc2)C1` (stereo unspecified), the TGI was 97.4 µM with MALME-3M melanoma; over 100 µM with EKVX NSCLC; 53.7 µM in the assay with HT29 colon; over 100 µM in the assay on PC-3 prostate; 7.51 µM in the assay with A498 renal; over 100 µM in the assay with SK-OV-3 ovarian. The TGI is 92.7 µM in the assay with OVCAR-3 ovarian; 72 µM in the assay with K-562 leukemia; over 100 µM in the assay with OVCAR-8 ovarian; over 100 µM with HS 578T breast; over 100 µM in the assay with NCI/ADR-RES ovarian.
As to `CCOC(OCC)[C@H](N)[C@@H](O)[C@@H](O)[C@H]1COC(C)(C)O1`, the TGI in the assay on MALME-3M melanoma, in the assay with EKVX NSCLC, with HT29 colon, in the assay on PC-3 prostate, with A498 renal and in the assay with SK-OV-3 ovarian was over 100 µM each time. Moreover, the TGI in the assay on OVCAR-3 ovarian, in the assay on K-562 leukemia, with OVCAR-8 ovarian, in the assay with HS 578T breast and in the assay on NCI/ADR-RES ovarian was over 100 µM throughout.
As to `CC(C)=CCC/C(C)=C/CC/C(C)=C/C1CCC(=O)C1(C)C` (stereo unspecified), the TGI in the assay on MALME-3M melanoma is 37.5 µM; in the assay with EKVX NSCLC, 42.4 µM; in the assay with HT29 colon, 32.4 µM; with A498 renal, 36.9 µM; in the assay on NCI-H522 lung it was 29 µM; with SK-OV-3 ovarian, 81 µM. Also, the figures for the TGI in the assay with OVCAR-3 ovarian, with K-562 leukemia and with OVCAR-8 ovarian were 32.5 µM, 38 µM and 38.7 µM, respectively.
With `COC(=O)[C@]1(Cc2ccc3ccccc3c2)CCCCCCN1C(=O)c1ccccc1`, the TGI in the assay with MALME-3M melanoma is over 53.2 µM; with EKVX NSCLC it was over 50.9 µM; with HT29 colon, over 45.2 µM; in the assay with PC-3 prostate it was over 45.7 µM; in the assay with A498 renal, over 51.5 µM; in the assay with SK-OV-3 ovarian, over 89.8 µM. Besides, the TGI is over 43.5 µM in the assay on OVCAR-3 ovarian; over 100 µM with K-562 leukemia; over 48.5 µM in the assay with OVCAR-8 ovarian; over 56.1 µM in the assay on HS 578T breast; over 49.7 µM with NCI/ADR-RES ovarian.
With `O=C1/C(=C\c2cccc(Oc3ccccc3)c2)SC(c2ccccc2)N1c1cccc(Cl)c1` (stereo unspecified), the TGI in the assay with MALME-3M melanoma, in the assay with EKVX NSCLC, in the assay with HT29 colon, with A498 renal, in the assay with SK-OV-3 ovarian and in the assay on OVCAR-3 ovarian was over 100 µM in each case. Besides, the TGI with K-562 leukemia, with OVCAR-8 ovarian, in the assay with HS 578T breast and in the assay on NCI/ADR-RES ovarian was over 100 µM each time.
With `COc1ccc(/C=C2/SC(c3c(O)ccc4ccccc34)N(NC(=O)CCCCCCCCC(=O)NN3C(=O)/C(=C\c4ccc(OC)c(OC)c4)SC3c3c(O)ccc4ccccc34)C2=O)cc1OC` (stereo unspecified), the TGI is 51.4 µM with MALME-3M melanoma; over 100 µM in the assay on EKVX NSCLC; over 100 µM with HT29 colon; over 100 µM in the assay on PC-3 prostate; 49.3 µM in the assay on A498 renal; over 100 µM in the assay on NCI-H522 lung. In addition, the TGI is over 52.9 µM with SK-OV-3 ovarian; over 58.5 µM in the assay with OVCAR-3 ovarian; 17 µM with K-562 leukemia; 20.2 µM in the assay on OVCAR-8 ovarian; 32.1 µM in the assay on NCI/ADR-RES ovarian.
For `C/C(=N\Nc1nc2ccccc2o1)c1cc2ccccc2cn1`, the TGI is 5.51 µM with MALME-3M melanoma; 1.25 µM with EKVX NSCLC; 12 µM with PC-3 prostate; over 100 µM in the assay on A498 renal; 8.15 µM in the assay with SK-OV-3 ovarian; 13.2 µM in the assay with OVCAR-3 ovarian. In the assay on HS 578T breast, this molecule came in with a TGI of 11.2 µM.
